Structures can show the parent of a compound that is named as a salt. Where two headings read alike, the source gives them in different places.
How the values were obtained:
test animals = test: Behavior analysis (side-effect or toxicity scores); assay type: in vivo; design: key to Sedation / Dyspnoea / Vasodilation / Convulsion / Salivation / Urination: behavior score; higher number = greater side effects; details: behavior score; for Convulsion / Salivation / Urination: normal value 0; for Dyspnoea / Ptosis / Sedation / Vasodilation: normal value 4
Description: In order to monitor a harmful side-effect or toxicity of the compounds having the formula(I), various behavioral changes in the test animals were observed. […] The higher the number is, the greater the side effects are.

KTC-ICR mice [1] = test: phenyl-1,4-benzoquinone(PBQ) induced writhing test; assay type: in vivo; details: Mus musculus
Procedure: (§1) The KTC-ICR mice derived from Charles River Breeding Laboratory in the United States and provided by Experimental Animal Laboratory of Korea Research Institute of Chemical Technology were used as test animals. […] They were tested after having been adjusted to the testing environment for a week. Food and water were given freely; and illumination was maintained on a 12-hour cycle.
(§2) Experiments were performed in two ways: that is, the acetic acid induced writhing test and the phenyl-1,4-benzoquinone(PBQ) induced writhing test.
Alternatively, solutions for the PBQ induced writhing test were prepared by dissolving one of the products synthesized in Examples 33 to 46 in a mixture of Tween 80, alcohol and distilled water (1:5:94); and administered orally to the 5 ICR mice for each test in a dose of 0.3mℓ per 30g of body weight. 60 minutes later, 0.02% PBQ solution was administered intraperitoneally in a dose of 0.1mℓ per 30g of body weight of the test animals. 5 minutes thereafter, at the temperature of 40°C, the number of writhings occurred during a period of 5 minutes due to the PBQ solution administered was measured. For comparison, only the mixture of Tween 80, alcohol and distilled water was administered orally to the control group; and, after 60 minutes, the PBQ solution was administered intraperitoneally to the control group in the same manner as mentioned above.
(§3) The number of writhings suffered by the test group was compared with that of the control group; and the analgesic effect was measured in terms of the percentage of inhibition of writhing(I. W.). I. W. (%) =(A - B)/(A)x 100 [formula] A : the number of writhings suffered by the control group, B : the number of writhings suffered by the test group.
(§4) These ED50 values for the test compounds are shown in the last column of Table 1.

mice = test: Tail-flick test (radiant heat); assay type: in vivo; details: p. o.
Procedure: Radiant heat was applied using a beam of high-intensity light focused on a tail spot. The response time, defined as the interval between the onset of the stimulus and the tail flick, was measured electronically(to the nearest 0.1 second). The beam intensity was set at a level giving a mean control reaction time of 3.8±0.4 seconds. […] The percentage of inhibition was determined by the following equation: Inhibition(%) =(Reaction time of the treated group - Reaction time of the control group)/(Reaction time of the control group)x 100 [formula]

acute toxicity test = details: mouse, in vivo, po, per os, 5 weeks old, observed for 14 days
KTC-ICR mice [2] = test: acetic acid induced writhing test; assay type: in vivo; details: Mus musculus; oral; 0.9% acetic acid i.p. 60 minutes later; writhings during 10 minutes; mice 20 to 25g; Examples 1 to 32
Procedure: as §1, §2
Solutions for the acetic acid induced writhing test were prepared by dissolving one of the end products prepared in Examples […] in a saline solution containing 1% by weight of Tween 80 to have a concentration of 5mg/mℓ and diluting it serially with the saline solution. The test solutions were administered orally in a dose of 0.3mℓ per 30g of body weight, using the 5 ICR mice for each test. 60 minutes later, 0.9% acetic acid solution was administered intraperitoneally in a dose of 0.1mℓ per 30g of body weight. 3 minutes thereafter, the number of writhings generated during a period of 10 minutes due to the administration of acetic acid was measured. For comparison purpose, initially, saline solution alone was administered orally to the control group. 60 minutes thereafter, 0.9% acetic acid solution was administered intraperitoneally to the control group.
as §3, §4

[3] = system: Rats(Sprague-Dawley, female); test: Anti-inflammatory test (carrageenin paw edema); assay type: in vivo; details: Rattus norvegicus, sc, 3 h
Procedure: Rats(Sprague-Dawley, female) weighing 100 to 120g were used. Twenty minutes after the test drug was administered(s. c.), carrageenin was injected(0.1mℓ of 1% solution, s. c.) in the plantar surface of the right hind paw.
The percentage of inhibition was determined by the following equation: Inhibition(%) =(Volume of the carrageenin treated foot - Volume of the control foot)/(Volume of the contol foot)x 100 [formula]

[4] = system: Male albino rats(120-170g) of the Charles River Sprague-Dawley strain; test: Randall-Selitto test (yeast induced hyperalgesia); assay type: in vivo
Procedure: Randall-Selitto Test was carried out by following the method described in Arch. Int. Pharmacodyn.
Male albino rats(120-170g) of the Charles River Sprague-Dawley strain were used. Inflammation was produced by the injection of 0.1mℓ of a 20% suspension of Brewer's yeast into the plantar surface of the rat's hind foot.
The pain threshold was measured as the pressure in mmHg required to induce the desired response(a sharp audible squeak and/or struggle) when the pressure was applied to the foot. Air pressure from an air line was admitted through a needle valve to a 20mℓ glass syringe and to a pressure gauge which was connected by a T-tube. The syringe was mounted with the plunger downward to which was connected a short bullet-shaped Teflon peg. The pressure was applied to the foot of the rat at the rate of 10 mmHg per second. Drug was given 2 hours after the yeast injection. Two hours after the drug administration, threshold response was determined.
The analgesic activity was determined in terms of the percentage of inhibition of response: Inhibition(%) =(Threshold of the treated group - Threshold of the control group)/(Threshold of the control group)x 100 [formula]

[5] = oral, 0.02% PBQ i.p. 60 minutes later, writhings during 5 minutes, mice 10 to 15g, Examples 33 to 46

CCCCCCCC/C=C\CCCCCCCC(=O)NCc1ccc(OCCN)c(OC)c1 [NE-21610, reference compound]
4: Dyspnoea (test animals; dose 10mg/Kg) | Ptosis (test animals; dose 10mg/Kg) | Sedation (test animals; dose 10mg/Kg) | Vasodilation (test animals; dose 10mg/Kg) | Dyspnoea (test animals; dose 25mg/Kg) | Ptosis (test animals; dose 25mg/Kg) | Sedation (test animals; dose 25mg/Kg) | Vasodilation (test animals; dose 25mg/Kg) | Dyspnoea (test animals; dose 50mg/Kg) | Vasodilation (test animals; dose 50mg/Kg) | Vasodilation (test animals; dose 100mg/Kg)
2: Convulsion (test animals; dose 100mg/Kg)
50%: Inhibition(%) (mice; dose 200 mg/Kg)
5: Ptosis (test animals; dose 50mg/Kg) | Sedation (test animals; dose 50mg/Kg)
> 300 mg/kg: ED50 (KTC-ICR mice [1]; po, writhing test, inducer (acetic acid or PBQ) not stated for this reference)
6: Dyspnoea (test animals; dose 100mg/Kg)
7: Ptosis (test animals; dose 100mg/Kg) | Sedation (test animals; dose 100mg/Kg)
0: Convulsion (test animals; dose 10mg/Kg) | Salivation (test animals; dose 10mg/Kg) | Urination (test animals; dose 10mg/Kg) | Convulsion (test animals; dose 25mg/Kg) | Salivation (test animals; dose 25mg/Kg) | Urination (test animals; dose 25mg/Kg) | Convulsion (test animals; dose 50mg/Kg) | Salivation (test animals; dose 50mg/Kg) | Urination (test animals; dose 50mg/Kg) | Salivation (test animals; dose 100mg/Kg) | Urination (test animals; dose 100mg/Kg)

Cc1ccc(CCCNC(=O)Cc2ccc(OCCN)c(F)c2)cc1 [Example 11]
322 mg/kg: LD50 at 336 h (acute toxicity test; 5 ICR female mice, read-out: LD50(female))
500 mg/kg: LD50 at 336 h (acute toxicity test; 5 ICR male mice, read-out: LD50(male))
0.01 mg/kg: ED50 (KTC-ICR mice [2])

CC(=O)Oc1ccccc1C(=O)O [Aspirin]
80.1%: Inhibition(%) ([4]; dose 100 mg/Kg s. c., 10 rats, pain threshold vs yeast-treated saline control)
109 mg/kg: ED50 [3]
0%: Inhibition(%) (mice; dose 100 mg/Kg)

Cc1ccc(CCCNC(=O)Cc2ccc(OCCN)c(O)c2)cc1C [Example 33, N-{3-(3,4-dimethylphenyl)propyl}-4-(2-aminoethoxy)-3-hydroxyphenylacetamide]
5: Sedation (test animals; dose 0.6mg/Kg) | Dyspnoea (test animals; dose 2.0mg/Kg)
0: Convulsion (test animals; dose 0.2mg/Kg) | Salivation (test animals; dose 0.2mg/Kg) | Urination (test animals; dose 0.2mg/Kg) | Convulsion (test animals; dose 0.6mg/Kg) | Salivation (test animals; dose 0.6mg/Kg) | Urination (test animals; dose 0.6mg/Kg) | Convulsion (test animals; dose 2.0mg/Kg) | Salivation (test animals; dose 2.0mg/Kg) | Urination (test animals; dose 2.0mg/Kg)
7: Sedation (test animals; dose 2.0mg/Kg)
4: Dyspnoea (test animals; dose 0.2mg/Kg) | Ptosis (test animals; dose 0.2mg/Kg) | Sedation (test animals; dose 0.2mg/Kg) | Vasodilation (test animals; dose 0.2mg/Kg) | Dyspnoea (test animals; dose 0.6mg/Kg) | Ptosis (test animals; dose 0.6mg/Kg) | Vasodilation (test animals; dose 0.6mg/Kg) | Vasodilation (test animals; dose 2.0mg/Kg)
6: Ptosis (test animals; dose 2.0mg/Kg)
0.49 mg/kg: ED50 (KTC-ICR mice [1]; [5])

NCCOc1ccc(CC(=O)NCCCc2ccc(Cl)cc2)cc1N [Example 39, N-{3-(4-chlorophenyl)propyl}-4-(2-aminoethoxy)-3-aminophenylacetamide]
77.6 mg/kg: ED50 (KTC-ICR mice [1]; [5])
4: Dyspnoea (test animals; dose 10mg/Kg) | Ptosis (test animals; dose 10mg/Kg) | Sedation (test animals; dose 10mg/Kg) | Vasodilation (test animals; dose 10mg/Kg) | Dyspnoea (test animals; dose 25mg/Kg) | Ptosis (test animals; dose 25mg/Kg) | Sedation (test animals; dose 25mg/Kg) | Vasodilation (test animals; dose 25mg/Kg) | Dyspnoea (test animals; dose 50mg/Kg) | Ptosis (test animals; dose 50mg/Kg) | Sedation (test animals; dose 50mg/Kg) | Vasodilation (test animals; dose 50mg/Kg)
0: Convulsion (test animals; dose 10mg/Kg) | Salivation (test animals; dose 10mg/Kg) | Urination (test animals; dose 10mg/Kg) | Convulsion (test animals; dose 25mg/Kg) | Salivation (test animals; dose 25mg/Kg) | Urination (test animals; dose 25mg/Kg) | Convulsion (test animals; dose 50mg/Kg) | Salivation (test animals; dose 50mg/Kg) | Urination (test animals; dose 50mg/Kg)

COc1cc(CC(=O)NCCCc2ccc(C)c(C)c2)ccc1OCCN [Example 1-HCl]
248.3%: Inhibition(%) ([4]; dose 1.5 mg/Kg s. c., 8 rats)

— patent EP0525360B1, “Novel phenylacetamide derivatives and processes for the preparation thereof” (KOREA RESEARCH INSTITUTE OF CHEMICAL TECHNOLOGY, priority 1991, dated 1993)
